Common to all, as to assay: Post-emergence test/greenhouse, % damage after three weeks
What all share (type): in vivo

One experiment has as its system Bromus secalinus. As for the experimental part: (§1) The expected action for a given combination of two herbicides can be calculated as follows (cf. COLBY, S. R.: “Calculating synergistic and antagonistic responses of herbicide combinations”, Weeds 15, pages 20-22, 1967):
(§2) If the actual damage exceeds the calculated value, the combination has a superadditive effect, that is to say a synergistic effect.
(§3) Test plants are grown under control conditions (temperature and light).
(§4) Following the spray application, the plant containers are kept in the greenhouse under constant light and temperature conditions.
(§5) After three weeks, the degree of damage to the plants is rated in % damage in comparison to the development of the untreated control.

In a further experiment the test system is Veronica persicaria. As for the experimental part:
as §1, §2, §3, §4, §5

Another experiment deals with Lolium perenne.
The subject of another experiment is Avena fatua.
Excerpt: as §1
(§6) If • X=% damage by herbicide A (active compound of the formula I) at an application rate of p kg/ha and • Y=% damage by herbicide B (active compound of the formula II) at an application rate of q kg/ha and • E=the expected damage of herbicides A+B at an application rate of p+q kg/ha, then
as §2
(§7) Test plants are grown under control conditions (temperature and light). Once the plants have reached a height of 5 to 15 cm, the test compound or the combination of test compounds is applied by spraying such that the particular amounts of active compound desired are applied per unit area. The concentration of the spray liquor is chosen so that the particular amounts of active compound desired are applied in 500 litres of water/ha.
as §4, §5
(§8) The figures denote: • 0%=no effect (like untreated control) • 100%=total destruction

The subject of the next experiment is Matricaria inodora.
Excerpt: as §1, §6, §2, §7, §4, §5, §8

Another experiment deals with Alopecurus myosuroides.
Excerpt: as §1, §6, §2, §7, §4, §5, §8

Another experiment has as its system Setaria viridis. Particulars: for Setria viridis observed: post-emergence.
Excerpt: as §1, §6, §2, §7, §4, §5, §8

[1] abbreviates: Bromus secalinus, post-emergence, 504 h, read-out: Bromus secalinus observed.

Like-named read-outs stand apart in the source and are kept apart here.

Consider `CCS(=O)(=O)Nc1cc(-n2nc(C(F)(F)F)n(C)c2=O)c(F)cc1C(N)=S` [HWH 4991], for which the Bromus secalinus observed is given as 20% with Bromus secalinus (30 g of ai/ha) and 30% with Bromus secalinus (60 g of ai/ha). Further, in the experiment on Veronica persicaria (30 g of ai/ha), the Veronica persicaria observed is given as 90%. Also, the Lolium perenne observed is listed as 20% with Lolium perenne (30 g of ai/ha) and 60% with Lolium perenne (60 g of ai/ha).

As to `CC(Cl)CC(=O)Nc1c([N+](=O)[O-])cnn1-c1c(Cl)cc(C(F)F)cc1Cl` (stereo not drawn) [SLA 5599], the Veronica persicaria observed in the experiment with Veronica persicaria (30 g of ai/ha) was found to be 80%. Moreover, the Avena fatua observed in the experiment with Avena fatua (30 g of ai/ha) and with Avena fatua (60 g of ai/ha) was 0% each time. In addition, the Lolium perenne observed in the experiment on Lolium perenne (30 g of ai/ha) stood at 0%; in the experiment on Lolium perenne (60 g of ai/ha), 30%.

In the case of `C[C@@H](Oc1ccc(Cl)cc1Cl)C(=O)O` [dichlorprop-P, (R)-2-(2,4-dichlorophen-oxy)propanoic acid, reference compound], the Matricaria inodora observed in the experiment on Matricaria inodora (60 g of ai/ha), with Matricaria inodora (125 g of ai/ha) and with Matricaria inodora (250 g of ai/ha) was 0% throughout. Moreover, the Alopecurus myosuroides observed came to 0% in the experiment with Alopecurus myosuroides (60 g of ai/ha), 0% in the experiment with Alopecurus myosuroides (125 g of ai/ha) and 20% in the experiment on Alopecurus myosuroides (250 g of ai/ha). For the same compound, the Avena fatua observed is 0% in the experiment with Avena fatua (125 g of ai/ha) and 10% in the experiment with Avena fatua (250 g of ai/ha).

In the case of `O=C(Nc1ccc(F)cc1F)c1cccnc1Oc1cccc(C(F)(F)F)c1` [diflufenican, N-(2,4-di-fluorophenyl)-2-(3-trifluoromethylphenoxy)pyridine-3-carboxamide, reference compound], in the experiment with Bromus secalinus (Bromus secalinus, post-emergence, 504 h, 30 g of ai/ha, read-out: Bromus secalinus observed), the pest or weed control at 30 g/ha turned out to be 10%. For the same compound, the Alopecurus myosuroides observed came to 50% in the experiment with Alopecurus myosuroides (30 g of ai/ha), 50% with Alopecurus myosuroides (60 g of ai/ha) and 70% in the experiment with Alopecurus myosuroides (125 g of ai/ha). In addition, in the experiment with Avena fatua (125 g of ai/ha), the Avena fatua observed was 50%.

Take `CNC1=C(c2cccc(C(F)(F)F)c2)C(=O)C(c2ccccc2)O1` (stereo not drawn) [flurtamone]: in the experiment with Bromus secalinus (setting [1]), the pest or weed control at 60 g/ha amounted to 30%. For the same compound, the Matricaria inodora observed in the experiment with Matricaria inodora (30 g of ai/ha) came out at 30%.

For the compound `CS(=O)(=O)c1cc(C(F)(F)F)ccc1C(=O)c1cnoc1C1CC1` [isoxaflutole], the pest or weed control at 2 g/ha with Bromus secalinus (Bromus secalinus, post-emergence, 504 h, 2 g of ai/ha, read-out: Bromus secalinus observed) turned out to be 0%. The pest or weed control at 4 g/ha with Bromus secalinus (Bromus secalinus, post-emergence, 504 h, 4 g of ai/ha, read-out: Bromus secalinus observed) was determined as 0%. Moreover, in the experiment with Matricaria inodora (4 g of ai/ha), the Matricaria inodora observed is on record as 70%. The Alopecurus myosuroides observed with Alopecurus myosuroides (2 g of ai/ha) and in the experiment with Alopecurus myosuroides (4 g of ai/ha) was 0% each time.

As for `CCOC(=O)COc1cc(-c2nn(C)c(OC(F)F)c2Cl)c(F)cc1Cl` [pyraflufen ethyl], the Setria viridis observed with Setaria viridis (application rate 2 g of ai/ha) and in the experiment with Setaria viridis (application rate 4 g of ai/ha) was 40% throughout.

For the compound `CCOC(=O)COc1cc(-c2nn(C)c(OC(F)F)c2Cl)c(F)cc1Cl` [pyraflufen-ethyl], in the experiment on Bromus secalinus (setting [1]), the pest or weed control at 2 g/ha was 30% and the pest or weed control at 4 g/ha was 30%. For the same compound, in the experiment with Lolium perenne (2 g of ai/ha), the Lolium perenne observed is given as 0%. This compound also gave a Lolium perenne observed in the experiment with Lolium perenne (4 g of ai/ha) of 30%.

In the case of `C[S+](C)C.O=C([O-])CNCP(=O)(O)O` [sulfosate], the Alopecurus myosuroides observed in the experiment on Alopecurus myosuroides (250 g of ai/ha) came out at 30%. Besides, the Lolium perenne observed in the experiment on Lolium perenne (250 g of ai/ha) is 70%.

On to fluroxypyr, for which the Bromus secalinus observed in the experiment with Bromus secalinus (60 g of ai/ha) and in the experiment with Bromus secalinus (125 g of ai/ha) was 0% in each case. The Veronica persicaria observed in the experiment on Veronica persicaria (125 g of ai/ha) stood at 90%. For the same compound, the Matricaria inodora observed was 30% with Matricaria inodora (60 g of ai/ha) and 70% in the experiment with Matricaria inodora (125 g of ai/ha).

For the compound iodosulfuron, the Bromus secalinus observed in the experiment on Bromus secalinus (2 g of ai/ha) and in the experiment on Bromus secalinus (4 g of ai/ha) was 0% each time. In addition, in the experiment on Veronica persicaria (2 g of ai/ha), the Veronica persicaria observed worked out at 90%. Moreover, the Setaria viridis observed in the experiment on Setaria viridis (2 g of ai/ha) and in the experiment with Setaria viridis (4 g of ai/ha) was 0% in each case.

For sulcotrione, the Bromus secalinus observed is reported as 0% with Bromus secalinus (60 g of ai/ha) and 30% in the experiment with Bromus secalinus (120 g of ai/ha).

Consider terbuthylazine, for which the Bromus secalinus observed in the experiment with Bromus secalinus (500 g of ai/ha) came to 50%.

For the origin of these results see patent US20120309622A1, “HERBICIDES CONTAINING SUBSTITUTED THIEN-3-YL-SULPHONYLAMINIO(THIO)CARBONYL-TRIAZOLIN(ETHI)ONES” (BAYER INTELLECTUAL PROPERTY GMBH, priority 2001, published 2012).
